Assay: Precipitation from aqueous solution in the absence of the emulsifier
Assay type: physicochemical
Conditions: without natural emulsifier
From the text: In accordance with various exemplary embodiments of the present technology, the sweetener composition may comprise a natural emulsifier. The natural emulsifier may function to disperse the stevia glycosides through an aqueous solution such as water. The dissolved concentration of the stevia glycosides in the aqueous solution may be higher in the presence of the natural emulsifier than in the absence of the natural emulsifier. For example, rebaudioside A present in amounts of 11% by weight or greater may precipitate from an aqueous solution. In various embodiments of the present technology, the natural emulsifier may allow rebaudioside A to be present in aqueous solution in amounts of up to about 20% by weight without precipitation. In some embodiments, adding the natural emulsifier to an aqueous (ie., water-based) solution of stevia glycosides may stabilize the solubility of the sweetener composition including reducing or eliminating the precipitation of solids from the solution by binding any of the components to prevent separation of the finished sweetener composition.
In various embodiments, the solubility of the aqueous sweetener composition may remain stable for more than five days at room temperature. In some embodiments, the solubility of the aqueous sweetener composition may remain a stable for at least six months at room temperature. […]

Compound: C=C1C[C@@]23CC[C@H]4[C@@](C)(CCC[C@@]4(C)C(=O)O[C@@H]4O[C@H](CO)[C@@H](O)[C@H](O)[C@H]4O)[C@@H]2CC[C@]1(O[C@@H]1O[C@H](CO)[C@@H](O)[C@H](O[C@@H]2O[C@H](CO)[C@@H](O)[C@H](O)[C@H]2O)[C@H]1O[C@@H]1O[C@H](CO)[C@@H](O)[C@H](O)[C@H]1O)C3 [rebaudioside A]
- amount at which it may precipitate from an aqueous solution: ≥ 11 % by weight
